From patent US20260159500A1, “KINESIN KIF18A INHIBITOR AND USE THEREOF” (SHANGHAI APEIRON THERAPEUTICS COMPANY LIMITED, priority 2022, published 2026)

Assays:
OVCAR3 cells = experiment: Cell proliferation activity test in OVCAR3 cells (CyQUANT Direct); type: cell-based; conditions: Homo sapiens, OVCAR-3, 72 h, 3 days incubation, CyQUANT fluorescence detection, read-out: OVCAR-3_IC50_nM
Protocol: OVCAR3 cells were purchased from Nanjing Cobioer Biosciences Co., Ltd. RPMI-1640 medium, fetal bovine serum, and the CyQUANT Direct Cell Proliferation Assay kit were purchased from Thermo Fisher Scientific, USA; 96-well cell culture plates were sourced from Corning, USA.
Culture OVCAR3 cells with RPMI-1640 medium containing 10% fetal bovine serum and incubate them in a 5% CO2 incubator at 37° C. Only cells in the logarithmic growth phase can be used for the test.
Inoculate OVCAR3 cells into a 96-well cell culture plate at 90 μL per well and incubate overnight in a 5% CO2 incubator at 37° C. Dissolve the compound powder in DMSO to prepare a stock solution of 10 mM. Then perform gradient dilution for the compounds in the microplate to achieve a final concentration of 0-10 μM. Add 10 μL of cell culture medium containing compounds to each well to make the final DMSO content 0.2%. Incubate the cell plates in a 5% CO2 incubator at 37° C. for 3 days. Add 100 μL of CyQUANT detection reagent to each well, react at 37° C. for 60 min, and perform fluorescence detection using the PerkinElmer Envision.

HT29 cells = experiment: CyQuant cell proliferation activity test in HT29 cells; type: cell-based; conditions: Homo sapiens, HT-29, 72 h, 2000 cells per well, 3 days incubation, IC50 by XLFIT, read-out: HT29_IC50_nM
Protocol: HT29 cells were purchased from Nanjing Cobioer Biosciences Co., Ltd.; RPMI-1640 medium, fetal bovine serum, Trypsin-EDTA (0.25%), 96-well plates, and CyQuant reagents were purchased from ThermoFisher (USA); DMSO was purchased from SIGMA (USA).
Culture HT29 cells with RPMI-1640 containing 10% fetal bovine serum under the condition of 37° C. and 5% CO2. Only cells in the logarithmic growth phase can be used for the test.
Use the CyQuant reagent to detect the proliferation inhibitory activity of compounds on HT29 cells. Adjust the cell density and inoculate 100 μL per well into the 96-well plate (HT29 at 2000 cells per well), then incubate overnight under the condition of 37° C. and 5% CO2. Add compounds of various target concentrations (initial concentration of 3000 nM, 3-fold dilution, 9 concentration gradients), and make the DMSO content 0.2%. Incubate the cell plates at 37° C. and 5% CO2 for 3 days. Incubate with CyQuant reagent for 1 h, read the plate by Envision, and calculate IC50 using XLFIT.

[1] = biological target: T1, Human KIF18A (amino acid sequence 1-417) (Homo sapiens, UniProt Q8NI77); experiment: Enzymatic activity test (ADP-Glo, microtubule-stimulated KIF18A ATPase); type: biochemical; conditions: 60 μg/mL microtubules, 25 μM ATP, 2.5 nM KIF18A protein, 120 min at ambient temperature, read-out: KIF18A_nM
T1 construct: purchased Viva Biotech (Shanghai) Ltd
T1 sequence (Q8NI77 1-417): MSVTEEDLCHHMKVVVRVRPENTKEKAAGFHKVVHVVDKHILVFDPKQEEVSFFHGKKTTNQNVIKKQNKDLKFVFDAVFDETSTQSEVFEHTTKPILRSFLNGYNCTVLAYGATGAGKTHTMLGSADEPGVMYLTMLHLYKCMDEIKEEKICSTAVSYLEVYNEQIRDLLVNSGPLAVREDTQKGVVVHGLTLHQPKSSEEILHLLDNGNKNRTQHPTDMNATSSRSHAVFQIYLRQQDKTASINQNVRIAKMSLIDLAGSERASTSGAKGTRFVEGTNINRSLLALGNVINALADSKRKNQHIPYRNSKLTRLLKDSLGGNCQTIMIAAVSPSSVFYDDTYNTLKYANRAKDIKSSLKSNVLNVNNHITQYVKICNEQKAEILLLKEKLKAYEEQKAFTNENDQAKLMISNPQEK
Protocol: Human KIF18A (amino acid sequence 1-417) was purchased from Viva Biotech (Shanghai) Ltd.; the ADP-Glo™ protein kinase kit was acquired from Promega, USA; tubulin was sourced from Cytoskeleton, USA; and the 384-well assay plate and Envision multifunctional microplate reader were obtained from PerkinElmer, USA.
Dissolve the compound powder in DMSO to prepare a stock solution of 10 mM. Then perform gradient dilution for the compounds in the microplate to achieve a final concentration of 0-10 μM. Then, add 2.5 μL each of tubulin, compound, ATP, and KIF18A protein to the microplate in sequence for reaction at ambient temperature for 120 min. The final concentrations in the enzyme reaction are 60 μg/mL for microtubules, 25 μM for ATP, and 2.5 nM for KIF18A protein. After the enzyme reaction, add 10 μL of ADP-GLO reaction reagent to each well and incubate at ambient temperature for 30 min. After that, add 20 μL of detection reagent to each well and incubate at ambient temperature for 30 min in the dark. Finally, perform chemiluminescence detection using the PerkinElmer Envision.

Row | Compound | IC50 (OVCAR3 cells) | IC50 (HT29 cells) | IC50 [1]
1 | O=C(Nc1cc2ccsc2c(N2CCC(F)(F)CC2)n1)c1ccc(NS(=O)(=O)CCO)cc1N1CCC2(CC1)CC2 [Example 28, N-(7-(4,4-difluoropiperidin-1-yl)thieno[2,3-c]pyridin-5-yl)-4-(2-hydroxyethylsulfonamido)-2-(6-azaspiro[2.5]octan-6-yl)benzamide] | 0.026 µM | 0.009 µM | 0.046 µM
2 | O=C(Nc1nc(N2CCC(F)(F)CC2)c2occc2n1)c1ccc(NS(=O)(=O)CCO)cc1N1CCC2(CC1)CC2 [Example 32, N-(4-(4,4-difluoropiperidin-1-yl)furo[3,2-d]pyrimidin-2-yl)-4-((2-hydroxyethyl)sulfanilamide)-2-(6-azaspiro[2.5]octan-6-yl)benzamide] | 0.347 µM | 0.927 µM | 0.008 µM
3 | Cn1cnc2cc(NC(=O)c3ccc(NS(=O)(=O)CCO)cc3N3CCC4(CC3)CC4)nc(N3CCC(F)(F)CC3)c21 [Example 34] | 0.166 µM | 0.446 µM | 0.063 µM
4 | Cn1cnc2c(N3CCC(F)(F)CC3)nc(NC(=O)c3ccc(NS(=O)(=O)CCO)cc3N3CCC4(CC3)CC4)cc21 [Example 35, N-(4-(4,4-difluoropiperidin-1-yl)-1-methyl-1H-imidazolo[4,5-c]pyridin-6-yl)-4-((2-hydroxyethyl)sulfonamido)-2-(6-azaspiro[2.5]octan-6-yl)benzamide] | 0.027 µM | 0.057 µM | 0.029 µM
5 | Cn1ncc2c(N3CCC(F)(F)CC3)nc(NC(=O)c3ccc(NS(=O)(=O)CCO)cc3N3CCC4(CC3)CC4)cc21 [Example 36] | 0.064 µM | 0.062 µM | 0.039 µM
6 | Cn1ccc2cc(NC(=O)c3ccc(NS(=O)(=O)CCO)cc3N3CCC4(CC3)CC4)nc(N3CCC(F)(F)CC3)c21 [Example 37] | 0.121 µM | 0.025 µM | 0.121 µM
7 | O=C(Nc1cc2cccnc2c(N2CCC(F)(F)CC2)n1)c1ccc(NS(=O)(=O)CCO)cc1N1CCC2(CC1)CC2 [Example 44] | 0.021 µM | 0.026 µM | 0.105 µM
8 | C[C@@H]1CN(c2nc(NC(=O)c3ccc(NS(=O)(=O)CCO)cc3N3CCC4(CC3)CC4)cc3cccnc23)CCO1 [Example 47] | 0.048 µM | 0.04 µM | 0.039 µM
9 | CN1CCN(c2nc(NC(=O)c3ccc(NS(=O)(=O)CCO)cc3N3CCC4(CC3)CC4)cc3cccnc23)CC1 [Example 48] | 0.236 µM | 0.36 µM | 0.108 µM
10 | O=C(Nc1cc2cccnc2c(N2CCN(CC(F)(F)F)CC2)n1)c1ccc(NS(=O)(=O)CCO)cc1N1CCC2(CC1)CC2 [Example 49, 4-(2-hydroxyethylsulfonamido)-2-(6-azaspiro[2.5]octan-6-yl)-N-(8-(4-(2,2,2-trifluoroethyl)piperazin-1-yl)-1,7-naphthyridin-6-yl)benzamide] | 1.34 µM | 1.43 µM | 1.22 µM

Stronger by IC50 (OVCAR3 cells), values ahead:

Row | IC50 (OVCAR3 cells) | IC50 (HT29 cells) | IC50 [1] | Compound
11 | 0.013 µM | 0.011 µM | 0.028 µM | O=C(Nc1cc2ccoc2c(N2CCC(F)(F)CC2)n1)c1ccc(NS(=O)(=O)CCO)cc1N1CCC2(CC1)CC2 [Example 29, N-(7-(4,4-difluoropiperidin-1-yl)furo[2,3-c]pyridin-5-yl)-4-(2-hydroxyethylsulfonamido)-2-(6-azaspiro[2.5]octan-6-yl)benzamide]
12 | 0.007 µM | 0.01 µM | 0.027 µM | O=C(Nc1cc(N2CCC(F)(F)CC2)c2occc2c1)c1ccc(NS(=O)(=O)CCO)cc1N1CCC2(CC1)CC2 [Example 30, N-(7-(4,4-difluoropiperidin-1-yl)benzofuran-5-yl)-4-(2-hydroxyethylsulfonamido)-2-(6-azaspiro[2.5]octan-6-yl)benzamide]
13 | 0.008 µM | 0.009 µM | 0.071 µM | O=C(Nc1cc2occc2c(N2CCC(F)(F)CC2)n1)c1ccc(NS(=O)(=O)CCO)cc1N1CCC2(CC1)CC2 [Example 31, N-(4-(4,4-difluoropiperidin-1-yl)furo[3,2-c]pyridin-6-yl)-4-(2-hydroxyethylsulfonamido)-2-(6-azaspiro[2.5]octan-6-yl)benzamide]
14 | 0.015 µM | 0.018 µM | 0.038 µM | O=C(Nc1cc2nsnc2c(N2CCC(F)(F)CC2)n1)c1ccc(NS(=O)(=O)CCO)cc1N1CCC2(CC1)CC2 [Example 39]
15 | 0.012 µM | 0.01 µM | 0.032 µM | O=C(Nc1cc(N2CCC(F)(F)CC2)c2nsnc2c1)c1ccc(NS(=O)(=O)CCO)cc1N1CCC2(CC1)CC2 [Example 40, 2-(6-Azaspiro[2.5]oct-6-yl)-4-(2-hydroxyethylsulfonyl)aminophenyl)-N-[4-(4,4-difluoropiperidinyl)benzo[3,4-c]1,2,5-thiadiazole-5-ylcarboxamide]
16 | 0.004 µM | 0.004 µM | 0.038 µM | O=C(Nc1cc(N2CCC(F)(F)CC2)c2ncsc2c1)c1ccc(NS(=O)(=O)CCO)cc1N1CCC2(CC1)CC2 [Example 41, 2-{6-Azaspiro[2.5]octan-6-yl}-N-[4-(4,4-difluoropiperidin-1-yl)-1,3-benzothiazol-6-yl]-4-(2-hydroxyethanesulfonamido) benzamide]
17 | 0.007 µM | 0.017 µM | 0.213 µM | Nc1nc2c(N3CCC(F)(F)CC3)c(F)c(NC(=O)c3ccc(NS(=O)(=O)CCO)cc3N3CCC4(CC3)CC4)cc2s1 [Example 42, N-[2-amino-4-(4,4-difluoropiperidin-1-yl)-5-fluoro-1,3-benzothiazol-6-yl]-2-{6-azaspiro[2.5]octan-6-yl}-4-(2-hydroxyethanesulfonamido)benzamide]
18 | 0.007 µM | 0.017 µM | 0.0287 µM | O=C(Nc1cc2c(c(N3CCC(F)(F)CC3)n1)C(=O)NCC2)c1ccc(NS(=O)(=O)CCO)cc1N1CCC2(CC1)CC2 [Example 43, N-(1-(4,4-difluoropiperidin-1-yl)-8-oxo-5,6,7,8-tetrahydro-2,7-naphthyridin-3-yl)-4-(2-hydroxyethylsulfonamido)-2-(6-azaspiro[2.5]octan-6-yl)benzamide]
19 | 0.018 µM | 0.031 µM | 0.028 µM | O=C(Nc1cc2cccnc2c(N2CCC(F)(F)CC2)n1)c1cc(F)c(NS(=O)(=O)CCO)cc1N1CCC2(CC1)CC2 [Example 45, N-(8-(4,4-difluoropiperidin-1-yl)-1,7-naphthyridin-6-yl)-5-fluoro-4-((2-hydroxyethyl)sulfonamide)-2-(6-azaspiro[2.5]octan-6-yl)benzamide]
20 | 0.012 µM | 0.014 µM | 0.039 µM | O=C(Nc1cc2cccnc2c(N2CCC(F)(F)CC2)n1)c1c(F)cc(NS(=O)(=O)CCO)cc1N1CCC2(CC1)CC2 [Example 46, N-(8-(4,4-difluoropiperidin-1-yl)-1,7-naphthyridin-6-yl)-2-fluoro-4-((2-hydroxyethyl)sulfonamido)-6-(6-azaspiro[2.5]octan-6-yl)benzamide]
